Data published in patent US5932410A, “Assay for the detection of proteases” (Commonwealth Scientific and Industrial Research …, priority 1994, dated 1999).
Where a SMILES comes first, the peptide text is derived from it. The star is where a group is joined. Cbz = O=C(OCc1ccccc1)*

How the values were obtained:
Assay type in all cases: biochemical
α-Lytic protease = α-Lytic protease (Lysobacter enzymogenes, UniProt P00778); test: Esterase assay, α-lytic protease; details: Z-AX-OMe substrate; for Esterase rate, α-Lytic protease: X = P1 residue, rates approximately ± 10%; for % activity, α-Lytic protease: normalised to alanine
Excerpt: (§1) Advantage was taken of this activity to develop an "esterase" assay which uses a pH indicator to visualise the hydrogen ion release caused by the action of proteases on peptide-ester substrates. A series of twenty compounds of the form, carbobenzoxy alanyl-X-methyl ester (Z-AX-OMe) were synthesised where "X" is one of the naturally occurring amino acids. These substrates were used in a 96 well microtitre plate assay to screen each mutant enzyme for activity and specificity. The reactions were followed visually or quantified using a standard ELISA plate reader. The esterase assay, using trypsin as a test enzyme and Z-Ala-Arg-OMe as substrate, was more sensitive as than traditional trypsin substrates (three times the rate obtained with benzoyl arginine ethyl aster and twenty times the rate of benzoyl arginine p-nitroanilide) (Whittaker et al., Analytical Biochemistry, 220, 238-243, 1994).
(§2) The present inventors produced a panel of substrates carbobenzoxy alanyl-X-methyl eater (Z-AX-OMe) where X is one of the naturally occurring amino acids. The reactivity of these substrates with a number of serine proteases is set out in Table 1 and FIG. 1.
(§3) Rates are A580 change/min./mg protease. Rates are also shown as a […]

Trypsin = test: Esterase assay, trypsin; details: Z-AX-OMe substrate; for Esterase rate, Trypsin: X = P1 residue, rates approximately ± 10%; for % of maximum activity, Trypsin: percentage of the maximum activity
Excerpt: as §1, §2, §3

Subtilisin = test: Esterase assay, subtilisin; details: Z-AX-OMe substrate; for Esterase rate, Subtilisin: X = P1 residue, rates approximately ± 10%; for % of maximum activity, Subtilisin: percentage of the maximum activity
Excerpt: as §1, §2, §3

Thrombin = Thrombin (Homo sapiens, UniProt P00734); test: Esterase assay, thrombin; details: Z-AX-OMe substrate; for Esterase rate, Thrombin: X = P1 residue, rates approximately ± 10%; for % of maximum activity, Thrombin: percentage of the maximum activity
Excerpt: as §1, §2, §3

Proteinase K = Proteinase K (Parengyodontium album, UniProt P06873); test: Esterase assay, proteinase K; details: Z-AX-OMe substrate; for Esterase rate, Proteinase K: X = P1 residue, rates approximately ± 10%; for % of maximum activity, Proteinase K: percentage of the maximum activity
Excerpt: as §1, §2, §3

Chymotrypsin = Chymotrypsin (Bos taurus, UniProt P00766); test: Esterase assay, chymotrypsin; details: Z-AX-OMe substrate; for Esterase rate, Chymotrypsin: X = P1 residue, rates approximately ± 10%; for % of maximum activity, Chymotrypsin: percentage of the maximum activity
Excerpt: as §1, §2, §3

Elastase = Elastase (Sus scrofa, UniProt P00772); test: Esterase assay, elastase; details: Z-AX-OMe substrate; for Esterase rate, Elastase: X = P1 residue, rates approximately ± 10%; for % activity, Elastase: normalised to alanine
Excerpt: as §1, §2, §3

Proteinase K, sequence (P06873 106-384): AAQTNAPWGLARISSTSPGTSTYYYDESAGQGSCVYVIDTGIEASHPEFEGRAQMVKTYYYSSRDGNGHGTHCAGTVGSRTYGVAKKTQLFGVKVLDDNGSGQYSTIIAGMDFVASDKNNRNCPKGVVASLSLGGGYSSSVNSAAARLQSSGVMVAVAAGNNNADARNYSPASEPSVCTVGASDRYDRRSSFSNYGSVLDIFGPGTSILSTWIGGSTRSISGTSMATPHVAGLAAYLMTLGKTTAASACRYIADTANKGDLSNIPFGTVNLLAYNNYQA
Elastase, sequence (P00772 27-266): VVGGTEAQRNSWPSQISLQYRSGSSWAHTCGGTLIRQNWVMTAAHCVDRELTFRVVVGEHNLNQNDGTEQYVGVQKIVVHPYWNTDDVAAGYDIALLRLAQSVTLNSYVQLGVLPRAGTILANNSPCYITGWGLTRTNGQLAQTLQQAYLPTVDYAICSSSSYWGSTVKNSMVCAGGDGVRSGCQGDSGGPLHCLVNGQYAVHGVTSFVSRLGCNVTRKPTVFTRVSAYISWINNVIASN
α-Lytic protease, sequence (P00778 25-397 limits assumed): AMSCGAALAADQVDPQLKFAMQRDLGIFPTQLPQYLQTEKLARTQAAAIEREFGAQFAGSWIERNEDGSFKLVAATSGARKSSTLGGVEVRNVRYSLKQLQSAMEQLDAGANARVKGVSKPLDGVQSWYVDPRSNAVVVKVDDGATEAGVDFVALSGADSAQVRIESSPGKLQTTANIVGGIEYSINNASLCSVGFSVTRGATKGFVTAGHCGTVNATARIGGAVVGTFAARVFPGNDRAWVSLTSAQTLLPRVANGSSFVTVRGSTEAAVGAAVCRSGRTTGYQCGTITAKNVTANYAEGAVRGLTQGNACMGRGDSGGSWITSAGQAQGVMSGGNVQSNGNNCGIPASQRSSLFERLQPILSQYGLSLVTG

Row | Structure (SMILES) | Esterase rate, α-Lytic protease (α-Lytic protease) | % activity, α-Lytic protease (α-Lytic protease) [%] | Esterase rate, Trypsin (Trypsin) | % of maximum activity, Trypsin (Trypsin) [%] | Esterase rate, Subtilisin (Subtilisin) | % of maximum activity, Subtilisin (Subtilisin) [%] | Esterase rate, Thrombin (Thrombin) | % of maximum activity, Thrombin (Thrombin) [%] | Esterase rate, Proteinase K (Proteinase K) | % of maximum activity, Proteinase K (Proteinase K) [%] | Esterase rate, Chymotrypsin (Chymotrypsin) | Esterase rate, Elastase (Elastase) | % activity, Elastase (Elastase) [%] | % of maximum activity, Chymotrypsin (Chymotrypsin) [%]
1 | COC(=O)[C@H](C)NC(=O)[C@H](C)NC(=O)OCc1ccccc1 [Ala] (Cbz-Ala-Ala-OMe) | 6.2 A580 change/min./mg protease | 100 | 0 A580 change/min./mg protease | 0 | 1536 A580 change/min./mg protease | 73.8 | 0 A580 change/min./mg protease | 0 | 775 A580 change/min./mg protease | 100 | trace | 15.7 A580 change/min./mg protease | 100 | –
2 | COC(=O)[C@H](CC(N)=O)NC(=O)[C@H](C)NC(=O)OCc1ccccc1 [Asn] (Cbz-Ala-Asn-OMe) | 0 A580 change/min./mg protease | 0 | 0 A580 change/min./mg protease | 0 | 244 A580 change/min./mg protease | 11.4 | 0 A580 change/min./mg protease | 0 | 137 A580 change/min./mg protease | 17.7 | 0.3 A580 change/min./mg protease | 0 A580 change/min./mg protease | 0 | 0.5
3 | COC(=O)[C@H](CC(=O)O)NC(=O)[C@H](C)NC(=O)OCc1ccccc1 [Asp] (Cbz-Ala-Asp-OMe) | 0 A580 change/min./mg protease | 0 | 0 A580 change/min./mg protease | 0 | trace | – | 0 A580 change/min./mg protease | 0 | 18 A580 change/min./mg protease | 2.3 | 0 A580 change/min./mg protease | 0 A580 change/min./mg protease | 0 | 0
4 | COC(=O)[C@H](CS)NC(=O)[C@H](C)NC(=O)OCc1ccccc1 [Cys] (Cbz-Ala-Cys-OMe) | 8.5 A580 change/min./mg protease | 137.1 | 0 A580 change/min./mg protease | 0 | 1251 A580 change/min./mg protease | 58.2 | 0 A580 change/min./mg protease | 0 | 392 A580 change/min./mg protease | 50.6 | 0.4 A580 change/min./mg protease | 86.1 A580 change/min./mg protease | 548.4 | 0.7
